Test results published in patent US9932376B2, “Analogues of temporin-SHa and uses thereof” (UNIVERSITE PIERRE ET MARIE CURIE (PARIS 6), priority 2013, dated 2018).
Entries after “also recorded” stand apart in the source; their conditions may differ. Ends that are not written are not given here.

Experiments:
[1] = system: Leishmania infantum promastigotes (strain MHOM/MA/67/ITMAP-263); experiment: Tests of anti-leishmanial activity on promastigotes expressing the luciferase; type: cell-based; settings: result in words
Protocol: Leishmanicidal activity of peptides was evaluated on the promastigote form of Leishmania infantum (strain MHOM/MA/67/ITMAP-263), responsible for visceral leishmaniosis.
Promastigotes were maintained at 26° C. by one or two weekly passages, depending on the number of parasites in the inoculum, in SDM 79 medium supplemented with 10 to 20% decomplemented fetal calf serum and […] porcine hemin and in the presence of 100 U/mL penicillin and 100 μg/mL streptomycin (Brun et al., 1979). Starting from an inoculum of 10^5 cells/mL in logarithmic growth phase, the promastigotes reached a cell density of 1 to 2×10^8 parasites/mL in stationary phase after 5 days of culture in 25 cm^2 culture flasks. Cell densities were determined by flow cytometry in the presence of propidium iodide on a FAC Scan cytometer (Excalibur, Becton Dickinson, Ivry, France).
The tests of anti-leishmanial activity were carried out with a parasite line expressing the luciferase. […]
After 72 hrs of incubation at 26° C., 50 μL of Steady-Glo lysis buffer (Promega) were added to each well. […] Emitted luminescence was measured with a luminescence plate reader (Victor, PerkinElmer). […] The percentage growth was calculated according to the following formula: % growth=[(L mean−bgd)peptide×100]/(L mean−bgd)negative control
where L mean: mean luminescence and bgd: background corresponding to the luminescence emitted by the culture medium. […]

Hemolytic test = type: cell-based, rat; settings: rat erythrocytes (washed red blood cells), pH 7.4, rat erythrocytes, 1 hr at 37° C.; for CC50 at 1 hr: read-out: LC50 (hemolytic activity), unit inferred
Protocol: (§1) The hemolytic activity of the antimicrobial peptides was assessed using rat erythrocytes. Red blood cell hemolysis is manifested by the release into the reaction medium of hemoglobin, the concentration of which is determined spectrophotometrically at 450 nm.
(§2) Red blood cells were separated from plasma and white blood cells by centrifugation of blood (900×g, 10 min). The pellet containing red blood cells was washed three times with PBS buffer, pH 7.4. After counting on a Malassez cell, a stock solution of 4×10^8 red blood cells/mL was prepared in the same buffer. A series of concentrations of the peptides to be tested was prepared (2 to 400 μM).
(§3) The test was carried out as follows: 50 μL of the different peptide concentrations were added to 50 μL of the red blood cell suspension. After 1 hr of incubation at 37° C. followed by centrifugation (12,000×g, 15 sec), absorbance of the supernatant was measured at 450 nm. The negative control for this test (0% hemolysis) contained […] in place of the peptide solution. The positive control (100% hemolysis) contained 50 μL of 0.1% Triton X-100 in place of the peptide solution.
(§4) The LC50 value obtained is the mean of three experiments carried out in triplicate and corresponds to the peptide concentration inducing hemolysis of 50% of the cells.

rat erythrocytes = experiment: Hemolytic test; type: cell-based; settings: for hemolytic activity (in words): rat erythrocytes, result in words
Protocol: as §1, §2, §3, §4

[2] = system: Gram-positive and Gram-negative bacterial strains; type: cell-based
Excerpt: The following strains were used for the antibacterial activity tests: Escherichia coli (ATCC 25922 and ML-35p), Staphylococcus aureus (ATCC 25923 and ST1065), Enterococcus faecalis (ATCC 29212), Pseudomonas aeruginosa (ATCC 27853), Streptococcus pyogenes (ATCC 19615), Listeria ivanovii, Salmonella enterica (serotype Enteritidis), Acinetobacter baumannii (ATCC 19606) and Klebsiella pneumoniae (ATCC 13883). Two antibiotic-resistant strains were also used (S. aureus ATCC 43300 and ATCC BAA-44).
For each strain, a standard inoculum of approximately 10^6 bacteria/mL (exponential growth phase) was prepared. To this end, a colony isolated on LB agar previously inoculated with one of the strains was cultured in 4 mL of LB broth medium, except for S. pyogenes and L. ivanovii, which were grown in BHI (Brain Heart Infusion) from a colony isolated on BHI agar. Liquid cultures were then incubated for 2 to 3 hrs at 37° C. with shaking for the bacteria to reach exponential growth phase. […]
The minimum inhibitory concentration (MIC) of each peptide was determined by a test of growth inhibition in broth medium. […] Bacterial growth was determined by measuring OD at 630 nm (turbidity) on a plate reader. […]

yeasts = experiment: Tests of antifungal activity (growth inhibition in YPD broth medium, MIC); type: cell-based
Protocol: Three yeast strains were used: Saccharomyces cerevisiae, Candida albicans (ATCC 90028), Candida parapsilosis (ATCC 22019). These strains were first grown on YPD agar for a minimum of 48 hrs. Yeast suspensions were then prepared, exactly as for bacteria, and adjusted to 10^6 cfu/mL in YPD broth medium.
The antifungal activity test corresponds to the growth inhibition test in broth medium used for the bacteria (see above) in which MH medium was replaced by YPD medium. Fungal strains were incubated at 30° C.

[3] = system: THP-1 monocyte-derived macrophages; experiment: Cytotoxicity test on THP-1 human monocytes-derived macrophages; type: cell-based; settings: result in words
Protocol: The viability of macrophages was ascertained using a trypan blue-based microassay. THP-1 cells from a culture suspension in mid-log phase of growth were plated at a density of 5×10^5 cells/mL in 96-well plates (100 μL/well, i.e., 5×10^4 cells/well) and differentiated as described above. After incubation for 72 hrs at 37° C. with 5% CO2, in the presence of peptide (60 μM to 7.5 μM, final concentrations), adherent macrophages were washed once with prewarmed RPMI 1640 medium and stained for 5 min, with 100 μL of trypan blue 2-fold diluted in RPMI 1640 medium. Wells were then washed twice with 100 μL of RPMI 1640 medium. Living white cells were microscopically counted in three focuses per well using a reticulated ocular.
The viability index (VI) was calculated for each peptide concentration using the following formula: VI=[N meanpeptide×100]/N meannegative control.
where N mean is the mean number of viable parasites. The negative control (100% growth) contained 20 μL of RPMI medium in place of the peptide solution.
The LC50 value, which corresponds to the peptide concentration inducing lysis of 50% of the cells, was determined from the viability indexes. Tests were carried out in sextuplicate for each peptide concentration and at least two independent experiments were performed to determine the LC50 value.

[4] = system: Leishmania infantum promastigote; settings: read-out: IC50 against the promastigote form; cited from earlier work
[5] = system: Leishmania infantum axenic amastigote; settings: read-out: IC50 against the axenic amastigote form; cited from earlier work

Substance | CC50 at 1 hr (Hemolytic test) | hemolytic activity (in words) (rat erythrocytes) | other results
F-L-K-G-I-K-G-M-L-G-K-L-L (FLKGIKGMLGKLL-NH2) [[K^3, K^6, L^13]temporin-SHa] | – | – | anti-leishmanial activity on L. infantum promastigotes (in words) [1]: approaches the cytotoxicity level of monocytes
FLKGIKGMLGKLF-NH2 [[K^3,K^6]temporin-SHa, F-L-K-G-I-K-G-M-L-G-K-L-F] | > 500 µM | no hemolytic activity | –
FLKGIVGKLGKLF-NH2 [[K^3,K^8]temporin-SHa, F-L-K-G-I-V-G-K-L-G-K-L-F] | > 500 µM | no hemolytic activity | –
FLKGIVGKLGKLL-NH2 [[K^3, K^8,L^13]temporin-SHa, F-L-K-G-I-V-G-K-L-G-K-L-L] | > 500 µM | no hemolytic activity | –
FLKGIVGMLGKLF-NH2 [[K^3]temporin-SHa] | – | – | MIC ([2]; Gram-positive (including antibiotic-resistant S. aureus strains) and Gram-negative bacterial strains of clinical interest): 3 to 6 µM; antimicrobial activity (in words) ([2]; bacteria and yeasts tested, result in words): more potent; MIC (yeasts): 3 to 6 µM
FLKGIVGMLGKLL-NH2 [[K^3,L^13]temporin-SHa, F-L-K-G-I-V-G-M-L-G-K-L-L] | – | lower hemolytic activity; also recorded: lesser haemolytic | fold lower hemolytic activity than [K^3]temporin-SHa (rat erythrocytes; relative to [K^3]temporin-SHa): 2 fold; cytotoxicity against the host cell (macrophage) (in words) [3]: reduced cytotoxicity
FLKGIVGMLGKLW-NH2 [[K^3,W^13]temporin-SHa, F-L-K-G-I-V-G-M-L-G-K-L-W] | – | lower hemolytic activity; also recorded: lesser haemolytic | –
FLSGIVGMLGKLF [temporin-SHa, F-L-S-G-I-V-G-M-L-G-K-L-F] | – | – | IC50 [4]: 18.1 µM; IC50 [5]: 22.8 µM
KGIVGMLGKLF-NH2 [[K^3]temporin-SHa(3-13)] | – | devoid of hemolytic activity | HC50 at 1 hr (Hemolytic test; read-out: LC50 (hemolytic activity)): 618 µM
